Assay results from patent publication US8389532B2, “7-[2-[4-(6-fluoro-3-methyl-1,2-benzisoxazol-5-yl)-1-piperazinyl]ethyl]-2-(1-propynyl)-7H-pyrazolo-[4,3-E]-[1,2,4]-triazolo-[1,5-C]-pyrimidin-5-amine” (Merck Sharp & Dohme Corp., priority 2005, dated 2013).
pKi: −log10 of the molar value.

Experiments:
[1] = test system: haloperidol-induced EPS; assay: EPS assay in haloperidol-sensitized Cebus apella monkeys; format: in vivo; details: 30 mg/kg co-administered with haloperidol 0.3 mg/kg
Description: A test compound is administered orally (p.o.) at a dose ranging from 0.3-30 mg/kg, in conjunction with haloperidol. The studies are conducted using a within-subjects design such that each monkey receives all treatments (vehicle and doses of test compound) in a crossover, balanced design. The reduction in the maximum EPS score, as well as the dose-dependent delay in the onset of EPS are determined. In the EPS assay, four haloperidol-sensitized monkeys were co-administered the compound of formula I (30 mg/kg) and haloperidol (0.3 mg/kg) in a banana. A scoring system to rate the severity of each symptom was employed over a 6 hour observation period.

[2] = biological target: T1, Human A2a Adenosine Receptor (Homo sapiens, UniProt P29274); assay: Human adenosine A2a receptor competition binding assay; details: [3H]-SCH 58261 0.5 nM, human A2a membranes
T1 construct: purchased Perkin Elmer Life Sciences RBHA2AM
Description: (§1) Human Adenosine A2a and A1 Receptor Competition Binding Assay Protocol
A2a: Human A2a Adenosine Receptor membranes, Catalog #RBHA2AM, Perkin Elmer Life Sciences, Shelton Conn. Dilute to 17 μg/100 μl in membrane dilution buffer (see below).
(§2) Membrane dilution buffer: Dulbecco's Phosphate Buffered Saline (Gibco/BRL)+10 mM MgCl2.
(§3) Compound Dilution Buffer: Dulbecco's Phosphate Buffered Saline (Gibco/BRL)+10 mM MgCl2 supplemented with 1.6 mg/ml methyl cellulose and 16% DMSO. Prepared fresh daily.
A2a: [3H]-SCH 58261, custom synthesis, AmershamPharmacia Biotech, Piscataway, N.J. Stock is prepared at 1 nM in membrane dilution buffer. Final assay concentration is 0.5 nM.
A2a: To determine non-specific binding, add 100 nM CGS 15923 (RBI, Natick, Mass.). Working stock is prepared at 400 nM in compound dilution buffer.
(§4) Prepare 1 mM stock solutions of compounds in 100% DMSO. Dilute in compound dilution buffer. Test at 10 concentrations ranging from 3 μM to 30 pM. Prepare working solutions at 4× final concentration in compound dilution buffer.
(§5) Perform assays in deep well 96 well plates. Total assay volume is 200 μl. Add 50 μl compound dilution buffer (total ligand binding) or 50 μl CGS 15923 working solution (A2a non-specific binding) or 50 μl NECA working solution (A1 non-specific binding) or 50 μl of drug working solution. Add 50 μl ligand stock ([3H]-SCH 58261 for A2a, [3H]-DPCPX for A1). […]

[3] = test system: haloperidol-induced catalepsy; assay: Haloperidol-induced catalepsy in the rat; format: in vivo; details: @ 4 h, rats
Description: Haloperidol-Induced Catalepsy in the Rat Male Sprague-Dawley rats (Charles River, Calco, Italy) weighing 175-200 g are used. The cataleptic state is induced by the subcutaneous administration of the dopamine receptor antagonist haloperidol (1 mg/kg, sc), 90 min before testing the animals on the vertical grid test. For this test, the rats are placed on the wire mesh cover of a 25×43 plexiglass cage placed at an angle of about 70 degrees with the bench table. The rat is placed on the grid with all four legs abducted and extended (“frog posture”). The use of such an unnatural posture is essential for the specificity of this test for catalepsy. The time span from placement of the paws until the first complete removal of one paw (descent latency) is measured maximally for 120 sec. The selective A2A adenosine antagonists under evaluation are administered orally at doses ranging between 0.03 and 3 mg/kg, 1 and 4 h before scoring the animals.

[4] = biological target: T2, A1 receptor (Homo sapiens, UniProt P30542); assay: Human adenosine A1 receptor competition binding assay (selectivity vs A2a); details: A1 ligand [3H]-DPCPX
T2 sequence (P30542 1-326): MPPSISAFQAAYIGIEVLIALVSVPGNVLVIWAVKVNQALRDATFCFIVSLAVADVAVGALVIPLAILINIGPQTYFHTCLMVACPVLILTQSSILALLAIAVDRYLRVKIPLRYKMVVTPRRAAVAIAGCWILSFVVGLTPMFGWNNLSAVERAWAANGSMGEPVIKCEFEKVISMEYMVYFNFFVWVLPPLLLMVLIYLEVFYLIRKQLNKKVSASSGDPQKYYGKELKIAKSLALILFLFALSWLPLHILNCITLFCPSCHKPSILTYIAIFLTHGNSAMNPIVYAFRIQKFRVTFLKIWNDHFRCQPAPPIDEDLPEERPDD
Description: as §1, §2, §3
A1: [3H]-DPCPX, AmershamPharmacia Biotech, Piscataway, N.J. Stock is prepared at 2 nM in membrane dilution buffer. Final assay concentration is 1 nM.
A1: To determine non-specific binding, add 100 μM NECA (RBI, Natick, Mass.). Working stock is prepared at 400 μM in compound dilution buffer.
as §4
as §5, with “A1). Add 100 μl of diluted membranes containing the appropriate receptor. Mix. Incubate at room temperature for 90 minutes.” for “A1).”
Selectivity is determined by dividing Ki for A1 receptor by Ki for A2a receptor. […]

[5] = biological target: T3, A2a receptor (Rattus norvegicus, UniProt P30543); assay: Ex vivo binding study to show duration of receptor occupancy (striatal homogenate, 3H-SCH 58261); format: in vivo; details: rats dosed 1 mg/kg; for receptor occupancy at 1 mg/kg: rat, 4 hours prior to sacrifice, read-out: decrease in 3H-SCH 58261 binding (receptor occupancy)
T3 construct: The A2a receptor-rich striatal nucleus was dissected and homogenized in buffer solution; from tissue; host or cells: rat striatum homogenate
Description: Ex Vivo Binding Study to Show Duration of Receptor Occupancy:
Rats were dosed with 1 mg/kg of the compound of formula I and the compound of formula II (generically disclosed in U.S. Pat. No. 6,897,217)
[drawing 4] for 4, 8, 12, and 16 hours prior to sacrifice and removal of brains. The A2a receptor-rich striatal nucleus was dissected and homogenized in buffer solution. Striatal homogenate was incubated with the A2a antagonist radioligand ^3H-SCH 58261 (see WO 96/38728) prior to separation of bound and free radioactivity by filtration. Bound radioligand on filters was dried, soaked with scintillation fluid, and counted. Homogenates from striata of vehicle-treated rats treated with the same experimental conditions defined the quantity of bound radioligand in the absence of test compound.

[6] = test system: 6-OHDA lesioned rats; assay: 6-OHDA lesion of the middle forebrain bundle in rats (contralateral turning with subthreshold L-DOPA); format: in vivo, rat; details: combined with sub-threshold L-DOPA
Description: 6-OHDA Lesion of the Middle Forebrain Bundle in Rats
Adult male Sprague-Dowley rats (Charles River, Calco, Como, Italy), weighing 275-300 g, are used in all experiments. The rats are housed in groups of 4 per cage, with free access to food and water, under controlled temperature and 12 hour light/dark cycle. The day before the surgery the rats are fasted over night with water ad libitum.
Unilateral 6-hydroxydopamine (6-OHDA) lesion of the middle forebrain bundle is performed according to the method described by Ungerstedt et al. (Brain Research, 1971, 6-OHDA and Cathecolamine Neurons, North Holland, Amsterdam, 101-127), with minor changes. Briefly, the animals are anaesthetized with chloral hydrate (400 mg/kg, ip) and treated with desipramine (10 mpk, ip) 30 min prior to 6-OHDA injection in order to block the uptake of the toxin by the noradrenergic terminals. Then, the animals are placed in a stereotaxic frame. The skin over the skull is reflected and the stereotaxic coordinates (−2.2 posterior from bregma (AP), +1.5 lateral from bregma (ML), 7.8 ventral from dura (DV) are taken, according to the atlas of Pellegrino et al (Pellegrino L. J., Pellegrino A. S. and Cushman A. J., A Stereotaxic Atlas of the Rat Brain, 1979, New York: Plenum Press). A burr hole is then placed in the skull over the lesion site and a needle, attached to a Hamilton syringe, is lowered into the left MFB. Then 8 μg 6-OHDA-HCl is dissolved in 4 μl of saline with 0.05% ascorbic acid as antioxidant, and infused at the constant flow rate of 1 μl/1 min using an infusion pump. The needle is withdrawn after additional 5 min and the surgical wound is closed and the animals left to recover for 2 weeks.
Any rat not showing at least 200 complete turns/2 h is not included in the study.
Selected rats receive the test drug 3 days after the priming test (maximal dopamine receptor supersensitivity).

T3 sequence (P30543 whole entry): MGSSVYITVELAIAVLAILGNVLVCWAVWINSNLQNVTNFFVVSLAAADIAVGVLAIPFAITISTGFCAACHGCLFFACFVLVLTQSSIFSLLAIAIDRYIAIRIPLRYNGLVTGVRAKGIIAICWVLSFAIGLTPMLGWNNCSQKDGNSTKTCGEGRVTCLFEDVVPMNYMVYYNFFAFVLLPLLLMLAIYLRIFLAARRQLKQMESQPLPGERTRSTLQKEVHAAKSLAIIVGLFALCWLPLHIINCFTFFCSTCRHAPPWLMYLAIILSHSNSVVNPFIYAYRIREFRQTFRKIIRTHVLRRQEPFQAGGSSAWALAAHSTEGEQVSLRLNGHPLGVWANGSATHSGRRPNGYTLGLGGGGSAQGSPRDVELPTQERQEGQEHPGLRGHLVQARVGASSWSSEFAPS
T1 sequence (P29274 whole entry): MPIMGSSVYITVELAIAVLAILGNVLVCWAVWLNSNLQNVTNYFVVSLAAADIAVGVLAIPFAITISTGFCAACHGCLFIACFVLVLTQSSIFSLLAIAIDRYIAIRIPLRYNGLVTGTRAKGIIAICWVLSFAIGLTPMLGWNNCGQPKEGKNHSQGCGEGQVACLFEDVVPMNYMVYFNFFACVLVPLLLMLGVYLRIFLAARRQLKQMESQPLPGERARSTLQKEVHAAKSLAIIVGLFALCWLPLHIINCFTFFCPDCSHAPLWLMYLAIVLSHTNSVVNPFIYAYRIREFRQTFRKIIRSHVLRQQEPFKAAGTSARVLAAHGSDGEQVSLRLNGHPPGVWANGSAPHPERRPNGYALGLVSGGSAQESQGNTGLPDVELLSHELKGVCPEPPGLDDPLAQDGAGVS

| Compound | effect on haloperidol-induced EPS, three of four subjects ([1]; 6 hr observation period) | effect on haloperidol-induced EPS, fourth subject ([1]; compared with haloperidol alone) | pKi [2] | inhibition of catalepsy ([3]; 0.3 mpk orally) [%] | inhibition of catalepsy ([3]; 1 mpk orally) [%] | inhibition of catalepsy ([3]; 3 mpk orally) [%] | Selectivity (Ki for A1 receptor divided by Ki for A2a receptor) [4] | receptor occupancy at 1 mg/kg [5] [%] | displacement of radiolabel (3H-SCH 58261) ([5]; 12 hours) [%] | contralateral turning ([6]; 0.1 mpk orally) [rotations] | contralateral turning ([6]; 0.3 mpk orally) [rotations] | contralateral turning ([6]; 1 mpk orally) [rotations] | contralateral turning ([6]; 3 mpk orally) [rotations] | 3H-SCH 58261 radioligand binding (receptor occupancy) ([5]; 8 hours) |
| --- | --- | --- | --- | --- | --- | --- | --- | --- | --- | --- | --- | --- | --- | --- |
| CC#Cc1nc2c3cnn(CCN4CCN(c5cc6c(C)noc6cc5F)CC4)c3nc(N)n2n1 [compound of formula I, 7-[2-[4-(6-fluoro-3-methyl-1,2-benzisoxazol-5-yl)-1-piperazinyl]ethyl]-2-(1-propynyl)-7H-pyrazolo-[4,3-e]-[1,2,4]-triazolo[1,5-c]pyrimidin-5-amine] | completely blocked haloperidol-induced EPS | delayed onset and reduced severity of EPS | 9.37 | 28 | 47 | 53 | greater than 2500 fold | 42 | 40 | 218±142 | 406±167 | 360±178 | 403±125 | – |
| CC#Cc1nc2c3cnn(CCN4CCN(c5cc(-c6noc(C)n6)ccc5F)CC4)c3nc(N)n2n1 [formula II, reference compound] | – | – | – | – | – | – | – | 47 | – | – | – | – | – | restored to near vehicle-treated levels |
